Legend:
[1] = tested on: HIV-1; assay: microbe, parasite or virus in culture; details: Human immunodeficiency virus 1, read-out: EC50 in LNP form
[2] = Sucrose gradient test of drug association; type: physicochemical; details: 5-20% sucrose gradient, 200,000 g, 4 hr; LPV/RTV/TFV LNPs, single miscible solvent method
Method: The sucrose gradient test to determine this characteristic is described in Example 5. Briefly, the sucrose gradient test comprises subjecting the multi-drug lipid nanoparticle to a continuous 5%-20% sucrose gradient and applying a centrifugal force of 200,000 g for 4 hours. The unassociated small molecules separate and float to the less dense fractions, whereas the associated small molecule agents sediment with the stable lipid nanoparticles in the denser gradients. The relative amounts of the unassociated and associated small molecule reagents can be quantified and, thus, compared.
The sucrose gradient test centrifugation test separates any unbound drugs from multi-drug lipid nanoparticles by sedimentation of lipid-drug particles through a sucrose gradient with increasing density to strip off unbound drugs. Under these conditions, all the free drugs in solution remained at (or floated to) the top of gradient where the sucrose density is low. Specifically, using a continuous gradient of 5-20% (with 65% cushion) sucrose, the lipid-drug particle mixture was subjected to centrifugal force at 200,000 g for 4 hr. Through this process, we were able to separate bound and unbound drug fractions. […] It is noted that the observed percentage of multi drug lipid nanoparticle association for the other two drugs (LPV and RTV) are consistent with data in Table 11.

[3] = tested on: HIV-2(287) replication; assay: Antiviral activity in HIV-infected CEM-174 cells; type: cell-based; details: Human immunodeficiency virus 2, CEM174, LPV:RTV:PMPA fixed 1:1:0.5 (m/m/m), LNP form; read-out: EC50 (nM), Drug-lipid nanoparticles with 3 drug combination
Method: The antiviral activity of the three-drug combination in soluble or LNP form was evaluated in HIV-infected CEM-174 cells as described previously. […] J Acquir Immune Defic Syndr 2003; 34(4):387-397, incorporated herein by reference in its entirety. […] The dose of drugs added to cells represents the sum of bound and unbound drugs in these anti-HIV LNP formulations.

[4] = Storage stability at 4° C. (fraction of drug bound, dialysis); type: physicochemical
Method: To test the long-term stability, the multi-drug nanoparticles were stored under refrigeration at 4° C. and were tested for stability after a prolonged period. The lipid-drug combination particles are stable as determined by both particle size and degree of drug association (Table 12). […] Even the hydrophilic compound, which readily diffuses out of most lipid particles in a number of hours, loses a remarkably low fraction of the associated drug after 8, 12, and 17 months in storage. This exceptional stability provides a substantial advantage for translation to clinical application.

[5] = % Drug association to particles by assembly method; type: physicochemical
Source text: Select one or two drugs hydrophilic and water soluble (Class 2) drugs listed in Table 19 (for example, tenofovir and/or emtricitabine and/or lamivudine). • 3. Select the excipient combination (for example, 9 parts DSPC and 1 part PEG-DSPE). • 4. Prepare a single-phase miscible solvent that enables full solubilization of the chosen water-insoluble Class 1 drugs and water soluble Class 2 drugs plus the excipients from step 3. Examples include CHCl3:Methanol:Water (65:35:4); CHCl3:Ethanol:Water (65:35:4); CHCl3:Propanol:Water (65:35:4); and CHCl3:Hexanol:Water (65:35:4). • 5. The components in Steps 1, 2 and 3 are solubilized with the miscible solvent in step 4. • 6. The drugs (steps 1 and 2) as well as excipients (step 3) and the miscible solvent (step 4) are dried under reduced pressure with assistance of a combination of heat, reduced pressure and/or aerosolization to provide for uniformity and efficiency of drying. • 7. The dehydrated composition is heated above gel-to-liquid phase transition temperature of the excipient mixture (e.g., 50° C.). • 8. A buffered saline solution is prepared and the temperature is equilibrated to the same temperature as dehydrated composition. • 9. The buffered saline solution and dehydrated composition are gradually combined and maintained at the defined (e.g., 50° C.) for 3 hr. • 10. The resulting hydrated multi-drug lipid nanoparticles are size-reduced by sheering or forcing through small orifice or pressurized filter apparatus while maintaining at the defined temperature (in liquid phase of lipidic excipients).

[6] = pH dependent drug release from LPV/RTV/TFV lipid nanoparticles; type: physicochemical; details: 2 hrs
Source text: As described above, we established the pH-dependent association of various drugs to lipids at neutral pH and the consequent release of the drugs when pH is lowered. Also described above, this stable integration and pH-dependent release of drugs from the multiple drug lipid nanoparticles was consistent for both lipophilic and water soluble compounds. To confirm the pH dependent release of the individual drugs from the multiple drug combination lipid nanoparticles, LPV/RTV/PMPA(TFV) lipid nanoparticles, assembled as described above, were subjected to different pH environments, and the free drug component of the supernatant was assayed to determine the amount of release. […] When a lipid nanoparticle is localized in tissues and taken up by HIV-infected cells, the incorporated antiretroviral drugs are then released inside the cell organelles (such as endosome and lysosomes) when the pH is lowered.

[7] = cited from earlier work
[8] = in vivo; details: male, Macaca nemestrina, in vivo, sc, Mean drug concentration, Lymph node
Method: (§1) Four macaques were divided into two treatment groups (two animals per group). […] Data were normalized to the anti-HIV LNP dose for comparative analysis.
(§2) Plasma was removed, PBMCs were isolated by the density gradient method, and cells were aliquoted into pellets of approximately 2 million PBMCs each. An inguinal lymph node was surgically excised 24 h after drug administration (n=2 per treatment), LNMCs were isolated by passage through a 100-lm nylon cell strainer (Corning, Tewksbury, Mass.), and cells were aliquoted into pellets of approximately 1-2 million LNMCs each. All samples were stored at −80° C. prior to drug analysis.
(§3) Plasma concentrations of all three drugs were analyzed simultaneously by liquid chromatography-tandem mass spectrometry using a recently published method. […] Antimicrob Agents Chemother 2014; 58(5):2675-2680, incorporated herein by reference in its entirety. PBMC and LNMC pellets were lysed using 200 μl water/methanol (1:1 v/v), sonicated for 10 min, and then extracted and analyzed using the same method as cited above. Intracellular concentrations were converted to ng/ml with the assumption that each cell has a volume of 4×10^−9 ml. Alberts B, Johnson A, Lewis J, et al. Molecular Biology of the Cell, 4 ed. Garland Science, New York, 2002, incorporated herein by reference in its entirety.

[9] = in vivo; details: for concentration at 24 h: sc, Mean drug concentration, Plasma
Source text: Four young adult male macaques (Macaca nemestrina, 2.9-4.0 kg) were housed and cared for by the Washington National Primate Research Center (WaNPRC) under an approved Institutional Animal Care and Use Committee protocol.
The vehicle for the first suspension was bicarbonate-buffered saline with 3% ethanol and 0.2% bovine serum albumin. The vehicle for the second suspension was bicarbonate-buffered saline with 8% DMSO and 0.1% Tween 20.
as §1, §2, §3
Data were analyzed by paired two-tailed Student's t-test with p<0.05 considered statistically significant.

[10] = Drug incorporation/encapsulation (association) efficiency of multi-drug LNPs by dialysis; type: physicochemical; details: for Degree of incorporation (% total): anti-HIV LNPs LPV/RTV/PMPA
Method: The anti-HIV LNP formulations contain both unbound drug and drugs bound to lipid nanoparticles. […] Drugs were quantified by LC-MS/MS using acetonitrile precipitation. Encapsulation efficiency (EE) was calculated as follows: […]

[11] = male, Macaca nemestrina, in vivo

Cc1cccc(C)c1OCC(=O)N[C@@H](Cc1ccccc1)[C@@H](O)C[C@H](Cc1ccccc1)NC(=O)[C@H](C(C)C)N1CCCNC1=O [Lopinavir (LPV), Lopinavir]
EC50 [1]: 0.03 ± 0.0008 µM
% association to lipid-drug particles (bound fraction) [2]: 81.8%
EC50 [3]: 3 ± 0.8 nM
Fraction of drug bound in multi-drug nanoparticles (% total) ([4]; 0 months): 82.70 ± 7.00%
Fraction of drug bound in multi-drug nanoparticles (% total) ([4]; 8 months): 95.33 ± 7.53%
Fraction of drug bound in multi-drug nanoparticles (% total) ([4]; 12 months): 94.62 ± 11.86%
Fraction of drug bound in multi-drug nanoparticles (% total) ([4]; 17 months, one batch): 92.89%
% Drug Association to Particles, LNPs from mixture of dual solvent method [5]: 80-100%
% Drug Association to Particles, LNPs from single, miscible solvent method [5]: 90-100%
% Drug released from anti-HIV nanoparticles ([6]; pH 4.0, 37° C.): 93.7 ± 1.2%
% Drug released from anti-HIV nanoparticles ([6]; pH 5.5, 37° C.): 28.9 ± 1.4%
% Drug released from anti-HIV nanoparticles ([6]; pH 6.5, 37° C.): 3.9 ± 2.7%
% Drug released from anti-HIV nanoparticles ([6]; pH 7.4, 37° C.): 1 ± 0.6%
Water solubility @ 25° C. [7]: 7.7 ng/mL
concentration at 24 h ([8]; Anti-HIV LNP treatment): 1212 ± 9.8 ng/mL
concentration at 24 h ([8]; Free drug treatment): 0 ng/mL
AUC 0-8 (%) of total, LNP [9, 11]: 9.9%
AUC 8-168 (%) of total, LNP [9, 11]: 90.1%
AUC fraction (% of total) Anti-HIV LNP 24-168 h [9, 11]: 62.8 ± 9.9%
concentration at 24 h ([9]; male, Macaca nemestrina, in vivo, Anti-HIV LNP treatment): 596 ± 123 ng/mL
concentration at 24 h ([9]; male, Macaca nemestrina, in vivo, Free drug treatment): 24.5 ± 26.3 ng/mL
AUC Free drug 0-168 h ([9]; plasma, sc 25/14.3/17.1 mg/kg LPV/RTV/PMPA, four animals): 3830 ± 4040 ng·h/mL
% particle-bound ([10]; Combination 1, lipid:LPV:RTV:TFV 115:10:5:15, large scale): (86.4 ± 0.9) %
% particle-bound ([10]; Combination 3, lipid:LPV:EFV:TFV 200:26.6:20:40, large scale): (76.6) %
Degree of incorporation (% total) ([10]; clinical scale (15-40 ml)): 93.6 ± 5.5%
Degree of incorporation (% total) ([10]; laboratory scale (0.1-0.4 ml)): 74.2 ± 7.3%
